Legend:
HCT116 = assay: Cell colony formation assay; format: cell-based; conditions: 72 hours with drug, colonies counted after 7 days
Experimental: This example provides directions for growing cells and testing compounds of the invention for their effect on the growth of the cells. All cells were purchased from DCTDC Tumor Repository, NCI, NIH.
Cell Colony Formation Assay
Four hundred cells (HCT 116, PC-3) or five hundred cells (VM46) were plated in 60 mm Petri dishes containing 2.7 ml of medium (modified McCoy's 5a medium) containing 10% fetal bovine serum and 100 units/ml penicillin and […] streptomycin. The cells were incubated in a CO2 incubator at 37° C. for 5 hours for attachment to the bottom of Petri dishes. Drugs were made fresh in medium at ten times the final concentration, and then 0.3 ml of this stock solution was added to the 2.7 ml of medium in the dish. The cells were then incubated with drugs for 72 hours at 37° C. At the end of the incubation the drug-containing media were decanted, the dishes were rinsed with 4 ml of Hank's Balance Salt Solution (HBSS), 5 ml of fresh medium was added, and the dishes were returned to the incubator for colony formation. The cell colonies were counted using colony counter after incubation for 7 days for HCT116 cells and PC-3 cells and 8 days for VM46 cells, respectively.
Values of ID50 (the drug concentration producing 50% inhibition of colony formation) may be determined for each tested compound. The directions described in this example may be used in other cells, such as DU-145.

C3H/HeJ mice = assay: In vivo toxicity (MTD / nontoxicity dose), intraperitoneal injection; conditions: highest dose causing no severe irreversible toxicity
Experimental: This example provides directions for performing in vivo toxicity tests of the compounds of the invention on C3H/HeJ mice.
Acute toxicities of the compounds of this invention are evaluated on C3H/HeJ mice (body weight 18-22 g). The MTD40 (maximum tolerated dose at day 40) values are determined by the standard procedure described by Gad and Chengelis (see, for example, “Acute Toxicology Testing,” 2nd Ed., Shayne O. Gad and Christopher P. Chengelis, pp. 186-195 (Academic Press).) In the consecutive type studies, 2 mice are dosed at low and moderate doses of 40 and 100 mg/kg. If no severe and irreversible toxicity (euthanasia is required) occurs at these doses, a new pair of animals is initiated at 180 mg/kg, which is 1.8 times higher than 100 mg/kg. Sequential dosages (about 3 doses on 3 pairs of animals, i.e. 2 mice for each drug dose) are increased by a factor of 1.8 until severe and irreversible toxicity (euthanasia is required) occurred. Then another pair of animals is initiated at the highest nonlethal dosage, and successive dosages were increased by a factor of 1.15. The result of this exercise is two dosages, one apparently nonlethal and the other lethal if severe and irreversible toxicity occurs and euthanasia is required, separated by a factor of 1.15. Six mice are dosed at each dosage. If no severe and irreversible toxicity occurs at the lower dosage and at least one with severe and irreversible toxicity occurs at the higher dose, then the lower dose is considered to be the MTD. The compounds of this invention are administered to C3H/HeJ mice by intraperitoneal injection (IP). Drug toxicity is evaluated on mice checked daily for 45 days. The toxicity parameters reported will be the MTD40.

[1] = tested on: MTG-B mouse mammary adenocarcinoma; assay: In vivo efficacy in mice bearing MTG-B tumors; design: species or system C3H/HeJ mice; conditions: i.p.; days from day 0; survival time of control mice generally 6 days
Experimental: This example provides directions for performing in vivo efficacy tests of the compounds of the invention on C3H/HeJ mice bearing MTG-B tumors.
Studies on the compounds of this invention are performed on C3H/HeJ mice bearing MTG-B tumors. The tumors grow exponentially following implantation into the flanks of the mice and reached a diameter of 8 mm (268.08 mm^3) by day 7 to 10. Treatment is initiated at that time, with the first day of treatment designated as day 0 for calculation and plots. The mice are injected i.p. with three drug dose levels (⅓, ½, 1 5 MTD) using both a single injection and the schedule of Q2D 5 3 (every 2 days for a total of 3 treatments at ⅓ MTD). Control groups of mice bearing 8 mm diameter tumors are treated with vehicle alone. After drug treatment, the mice are observed twice a day. When a tumor reaches 1.5 g, the mouse bearing the tumor wis euthanized. Surviving days measured from day 0 for mice treated with anticancer drugs (T) and surviving days measured from day 0 for control mice (C) are recorded. Tumor growth inhibition values (T/C %) are calculated using the formula T/C %=(surviving days of mice treated with an anticancer drug T/surviving days of control mice C) 5 100%.
Tumor sizes may be measured by caliper every day. Daily measurement (mm) of solid tumor (length L and width W) in two dimensions is used to calculate the tumor weight [tumor weight=(length 5 width^2)/2] based on the interchangeable value of 1 mm^3=1 mg. Tumor growth delay (T−C value) is determined by calculation of the median time (in days) required for the treatment group and control group tumors to reach 1,000 mg. Tumor doubling time (Td) is measured, and tumor cell kill is calculated by the formula of log cell kill=(T−C value)/(3.32 5 Td). Regression effects after treatment may be observed and recorded (a complete regression: a regression below limit of palpation; a partial regression: a regression of more than 50% reduction in tumor mass).
Generally, the survival time of the control mice is six (6) days. A ratio of the extra days of survival of mice treated with the compounds of the invention (compared to control) to the extra days of survival of mice treated with taxol (compared to control), can be calculated. For example, if the mice survived 18 days as compared to 9 days for taxol-treated mice, the CD/Taxol ratio would be 18−6/9−6=12/3=4 or 400%.
The following Table II provides a summary of the in vivo toxicity and iv vivo efficacy tests described in Examples 41 and 42 for the compounds tested.

COc1cc2c(c(OC)c1OC)-c1ccc(SC)c(=O)cc1C(NC(=O)COc1ccc(F)cc1)CC2 (stereo not drawn) [Compound 000811, N-Deacetyl-N-(4-fluorophenoxyacetyl)thiocolchicine]
Survival (%) of HCT116 (HCT116; 10 nM): 50.4%
Survival (%) of HCT116 (HCT116; 100 nM): 0%
In Vivo Toxicity Nontoxicity Dose (ip. mg/kg) in C3H/Hej mice (C3H/HeJ mice): 150 mg/kg

COc1cc2c(c(OC)c1OC)-c1ccc(SC)c(=O)cc1C(NC(=O)COc1ccc(Cl)cc1)CC2 (stereo not drawn) [Compound 000814, N-Deacetyl-N-(4-chlorophenoxyacetyl)thiocolchicine]
Survival (%) of HCT116 (HCT116; 10 nM): 87.7%
Survival (%) of HCT116 (HCT116; 100 nM): 0%
In Vivo Toxicity Nontoxicity Dose (ip. mg/kg) in C3H/Hej mice (C3H/HeJ mice): 100 mg/kg

COc1cc2c(c(OC)c1OC)-c1ccc(SC)c(=O)cc1C(NC(=O)COc1ccc(I)cc1)CC2 (stereo not drawn) [Compound 000816, N-Deacetyl-N-(4-iodophenoxyacetyl)thiocolchicine]
Survival (%) of HCT116 (HCT116; 10 nM): 100%
Survival (%) of HCT116 (HCT116; 100 nM): 0%
In Vivo Toxicity Nontoxicity Dose (ip. mg/kg) in C3H/Hej mice (C3H/HeJ mice): 100 mg/kg

COc1cc2c(c(OC)c1OC)-c1ccc(SC)c(=O)cc1C(NC(=O)COc1cc(C)ccc1C)CC2 (stereo not drawn) [Compound 000817, N-Deacetyl-N-(2,5-dimethylphenoxyacetyl)thiocolchicine]
Survival (%) of HCT116 (HCT116; 10 nM): 99.8%
Survival (%) of HCT116 (HCT116; 100 nM): 0%
In Vivo Toxicity Nontoxicity Dose (ip. mg/kg) in C3H/Hej mice (C3H/HeJ mice): 100 mg/kg

COc1cc2c(c(OC)c1OC)-c1ccc(SC)c(=O)cc1C(NC(=O)c1ccc([N+](=O)[O-])o1)CC2 (stereo not drawn) [Compound 000906, N-Deacetyl-N-(5-nitro-2-furnancarbonyl)thiocolchicine]
Survival (%) of HCT116 (HCT116; 1 nM): 98.67%
Survival (%) of HCT116 (HCT116; 10 nM): 0%
Survival (%) of HCT116 (HCT116; 100 nM): 0%
In Vivo Toxicity Nontoxicity Dose (ip. mg/kg) in C3H/Hej mice (C3H/HeJ mice): 50 mg/kg

COc1cc2c(c(OC)c1OC)-c1ccc(SC)c(=O)cc1C(NC(=O)c1cc(=O)c3ccccc3o1)CC2 (stereo not drawn) [Compound 000914, N-Deacetyl-N-(chromone-2-carbonyl)thiocolchicine]
Survival (%) of HCT116 (HCT116; 10 nM): 3.54%
Survival (%) of HCT116 (HCT116; 100 nM): 0%
In Vivo Toxicity Nontoxicity Dose (ip. mg/kg) in C3H/Hej mice (C3H/HeJ mice): 150 (120) mg/kg

CCC(=C(CC)c1ccc(OCC(=O)NC2CCc3cc(OC)c(OC)c(OC)c3-c3ccc(SC)c(=O)cc32)cc1)c1ccc(OCC(=O)NC2CCc3cc(OC)c(OC)c(OC)c3-c3ccc(SC)c(=O)cc32)cc1 (stereo not drawn) [Compound 000927, Dimer of N-Deacetylthiocolchicine]
Survival (%) of HCT116 (HCT116; 10 nM): 100%
Survival (%) of HCT116 (HCT116; 100 nM): 0%

COc1cc2c(c(OC)c1OC)-c1ccc(SC)c(=O)cc1C(NC(=O)N1c3ccccc3Sc3ccccc31)CC2 (stereo not drawn) [Compound 000928, N-Deacetyl-N-(phenothiazin-10-ylcarbonyl)thiocolchicine]
Survival (%) of HCT116 (HCT116; 100 nM): 100%

COc1cccc(OCC(=O)NC2CCc3cc(OC)c(OC)c(OC)c3-c3ccc(SC)c(=O)cc32)c1 (stereo not drawn) [Compound 001024, N-Deacetyl-N-(3-methoxyphenoxyacetyl)thiocolchicine]
Survival (%) of HCT116 (HCT116; 10 nM): 98.0%
Survival (%) of HCT116 (HCT116; 100 nM): 0%

COc1cc2c(c(OC)c1OC)-c1ccc(SC)c(=O)cc1C(NC(=O)COc1ccc(C#N)c(F)c1)CC2 (stereo not drawn) [Compound 001106, N-Deacetyl-N-(3-fluoro-4-cyanophenoxyacetyl)thiocoichicine]
Survival (%) of HCT116 (HCT116; 10 nM): 98.51%
Survival (%) of HCT116 (HCT116; 100 nM): 0%

COc1cc2c(c(OC)c1OC)-c1ccc(SC)c(=O)cc1[C@@H](NC(=O)COc1ccc([N+](=O)[O-])c(C(F)(F)F)c1)CC2 [Compound 001107, N-Deacetyl-N-(3-trifluoromethyl-4-nitropbenoxyacetyl)thiocolchicine]
Survival (%) of HCT116 (HCT116; 100 nM): 100%

COc1cc2c(c(OC)c1OC)-c1ccc(SC)c(=O)cc1C(NC(=O)c1ccc(N3C(=O)c4ccccc4C3=O)cc1)CC2 (stereo not drawn) [Compound 001114, N-Deacetyl-N-(4-phthalimidobenzoyl)thiocolchicine]
Survival (%) of HCT116 (HCT116; 100 nM): 95.05%

COc1cc2c(c(OC)c1OC)-c1ccc(SC)c(=O)cc1[C@@H](NC(=O)COc1ccc([N+](=O)[O-])cc1)CC2 [Compound 001127, N-Deacetyl-N-(4-nitrophenoxyacetyl)thiocolchicine]
Survival (%) of HCT116 (HCT116; 10 nM): 75.37%
Survival (%) of HCT116 (HCT116; 100 nM): 0%

COc1cc2c(c(OC)c1OC)-c1ccc(SC)c(=O)cc1C(NC(=O)COc1ccnc3ccccc13)CC2 (stereo not drawn) [Compound 001201, N-Deacetyl-N-(quinoline-4-oxyacetyl)thiocolchicine]
Survival (%) of HCT116 (HCT116; 100 nM): 95.07%

COc1cc2c(c(OC)c1OC)-c1ccc(SC)c(=O)cc1[C@@H](NC(=O)COc1cc(C(F)(F)F)cc(C(F)(F)F)c1)CC2 [Compound 001207, N-Deacetyl-N-(3,5-di-trifluoromethylphenoxyacetyl)thiocolchicine]
Survival (%) of HCT116 (HCT116; 100 nM): 3.10%

COc1cc2c(c(OC)c1OC)-c1ccc(SC)c(=O)cc1C(NC(=O)COc1ccc(OC(F)(F)F)cc1)CC2 (stereo not drawn) [Compound 001213, N-Deacetyl-N-(4-trifluoromethoxyphenoxyacetyl)thiocolchicine]
Survival (%) of HCT116 (HCT116; 100 nM): 62.56%

COc1cccc(N2CCN(CCC(=O)NC3CCc4cc(OC)c(OC)c(OC)c4-c4ccc(SC)c(=O)cc43)CC2)c1 (stereo not drawn) [Compound 001225, N-Deacetyl-N-(4-[3-methoxyphenyl]-piperazinylpropionyl)thiocolchicine]
Survival (%) of HCT116 (HCT116; 10 nM): 80.5%
Survival (%) of HCT116 (HCT116; 100 nM): 0%

COc1cc2c(c(OC)c1OC)-c1ccc(SC)c(=O)cc1C(NC(=O)CCN1CCN(c3cccc(C(F)(F)F)c3)CC1)CC2 (stereo not drawn) [Compound 001227, N-Deacetyl-N-(3-(4-[3-trifluoromethylphenyl]piperazinyl)propionyl)thiocolchicine]
Survival (%) of HCT116 (HCT116; 10 nM): 100%
Survival (%) of HCT116 (HCT116; 100 nM): 0%

COc1cc2c(c(OC)c1OC)-c1ccc(SC)c(=O)cc1C(NC(=O)COc1c(I)cc(C#N)cc1I)CC2 (stereo not drawn) [Compound 001229, N-Deacetyl-N-(2,6-diiodo-4-cyanophenoxyacetyl)thiocolchicine]
Survival (%) of HCT116 (HCT116; 10 nM): 100%
Survival (%) of HCT116 (HCT116; 100 nM): 0%

COc1cc2c(c(OC)c1OC)-c1ccc(SC)c(=O)cc1[C@@H](NC(C)=O)CC2 [Thiocolchicine, thiocolchicine, reference compound]
Survival (%) of HCT116 (HCT116; 1 nM): 100%
Survival (%) of HCT116 (HCT116; 10 nM): 0%
Survival (%) of HCT116 (HCT116; 100 nM): 0%

N-Deacetyl-N-(4-methoxyphenoxyacetyl)thiocolchicine [Compound 000818]
Survival (%) of HCT116 (HCT116; 10 nM): 98.8%
Survival (%) of HCT116 (HCT116; 100 nM): 0%
Surviving days after treatment of MTG-B mouse mammary adenocarcinoma in C3H/Hcj mice [1]: 8 days
